Laboratory results published in patent publication EP4806898A1, “HETEROARYL DERIVATIVE COMPOUND AND USE THEREOF” (Voronoi Inc., priority 2023, dated 2025).
Read-outs that look alike come from different tables or passages of the source.

Columns and labels:
[1] = biological target: T1, recombinant USP1 protein (Homo sapiens, UniProt O94782, DEL125-138/DEL229-408/DEL608-737); assay: Binding affinity to recombinant USP1 protein by differential scanning fluorimetry; conditions: read-out: ΔTm (°C)
T1 sequence (O94782 with tags, fused parts or gaps DEL125-138/DEL229-408/DEL608-737): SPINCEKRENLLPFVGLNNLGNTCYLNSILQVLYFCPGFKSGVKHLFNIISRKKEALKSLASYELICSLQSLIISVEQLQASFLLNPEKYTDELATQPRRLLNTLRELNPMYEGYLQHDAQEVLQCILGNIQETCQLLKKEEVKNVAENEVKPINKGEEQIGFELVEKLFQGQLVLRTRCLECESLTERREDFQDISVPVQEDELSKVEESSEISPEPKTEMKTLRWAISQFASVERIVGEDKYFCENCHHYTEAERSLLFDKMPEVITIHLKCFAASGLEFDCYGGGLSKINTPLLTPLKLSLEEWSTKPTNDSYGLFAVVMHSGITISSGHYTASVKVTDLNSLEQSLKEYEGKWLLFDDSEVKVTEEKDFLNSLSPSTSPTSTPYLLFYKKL
In short: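 Thermal shift readout: ΔTm is the compound-well melting temperature less the DMSO-well value, measured by real-time PCR. Compounds tested at 100 µM final against 0.03 mg/mL truncated USP1 (Δ1-66, Δ125-138, Δ229-408, Δ608-737) in pH 8.0 Tris buffer containing 150 mM NaCl, 2% glycerol, 1 mM DTT.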

[2] = test system: UWB1.289 cells; assay: Cell proliferation inhibitory activity in BRCA1/2-mutant or HRD-positive cells (Cell Titer-Glo); type: cell-based; conditions: read-out: GI50 UWB1.289 BRCA1 mut
In short: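 GI50 from CellTiter-Glo luminescence after 144 h compound exposure at 37 °C. Cells seeded at 1,000 per well in MEBM/RPMI1640 mix 16–24 h beforehand; […] from 10 µM down to 1.5 nM final (3-fold steps).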

[3] = compound 100 µM, 0.03 mg/mL USP1 (Δ1-66, Δ125-138, Δ229-408, Δ608-737), Tm with compound minus Tm with DMSO
[4] = UWB1289, UWB1.289 cells, 144 hours after compound treatment, Cell Titer-Glo, 1.5 nM to 10 µM

| SMILES | ΔTm at 100 µM [1, 3] | ΔTm at 100 µM [1] | GI50 ([2]; UWB1289, 144 h) | GI50 [2, 4] |
| --- | --- | --- | --- | --- |
| COc1ncnc(C2CC2)c1-c1ncc2cc(C(=O)N(C)CC3COC3)n(Cc3ccc(-c4nc(C(F)(F)F)cn4C(C)C)cc3)c2n1 [Example 139, 2-(4-cyclopropyl-6-methoxypyrimidin-5-yl)-7-(4-(1-isopropyl-4-(trifluoromethyl)-1H-imidazol-2-yl)benzyl)-N-methyl-N-(oxetan-3-ylmethyl)-7H-pyrrolo[2,3-d]pyrimidine-6-carboxamide] |  | > 5 °C | < 100 nM |  |
| CCN(CC)CCNC(=O)c1cc2cnc(-c3c(OC)ncnc3C3CC3)nc2n1Cc1ccc(-c2nc(C(F)(F)F)cn2C(C)C)cc1 [Example 52, 2-(4-cyclopropyl-6-methoxypyrimidin-5-yl)-N-(2-(diethylamino)ethyl)-7-(4-(1-isopropyl-4-(trifluoromethyl)-1H-imidazol-2-yl)benzyl)-7H-pyrrolo[2,3-d]pyrimidine-6-carboxamide] | > 5 °C |  |  | 100 to 500 nM |
| COc1ncnc(C2CC2)c1-c1ncc2cc(C(=O)N(C)CC(F)(F)F)n(Cc3ccc(-c4nc(C(F)(F)F)cn4C(C)C)cc3)c2n1 [Example 70, 2-(4-cyclopropyl-6-methoxypyrimidin-5-yl)-7-(4-(1-isopropyl-4-(trifluoromethyl)-1H-imidazol-2-yl)benzyl)-N-methyl-N-(2,2,2-trifluoroethyl)-7H-pyrrolo[2,3-d]pyrimidine-6-carboxamide] | > 5 °C |  |  | 100 to 500 nM |
| COc1ncnc(C2CC2)c1-c1ncc2cc(C(=O)NC34CC(F)(C3)C4)n(Cc3ccc(-c4nc(C(F)(F)F)cn4C(C)C)cc3)c2n1 [Example 89, 2-(4-cyclopropyl-6-methoxypyrimidin-5-yl)-N-(3-fluorobicyclo[1.1.1]pentan-1-yl)-7-(4-(1-isopropyl-4-(trifluoromethyl)-1H-imidazol-2-yl)benzyl)-7H-pyrrolo[2,3-d]pyrimidine-6-carboxamide] | > 5 °C |  |  | 100 to 500 nM |
| COc1ncnc(C2CC2)c1-c1ncc2cc(C(=O)N(C)CCN(C)C)n(Cc3ccc(-c4nc(C(F)(F)F)cn4C(C)C)cc3)c2n1 [Example 38, 2-(4-cyclopropyl-6-methoxypyrimidin-5-yl)-N-(2-(dimethylamino)ethyl)-7-(4-(1-isopropyl-4-(trifluoromethyl)-1H-imidazol-2-yl)benzyl)-N-methyl-7H-pyrrolo [2,3-d]pyrimidine-6-carboxamide] | > 5 °C |  |  | < 100 nM |
| COc1ncnc(C2CC2)c1-c1ncc2cc(C(=O)N3CC(F)C3)n(Cc3ccc(-c4nc(C(F)(F)F)cn4C(C)C)cc3)c2n1 [Example 101, (2-(4-cyclopropyl-6-methoxypyrimid in-5-yl)-7-(4-(1-isopropyl-4-(trifluoromethyl)-1H-imidazol-2-yl)benzyl)-7H-pyrrolo[2,3-d]pyrimidin-6-yl) (3-fluoroazetidin-1-yl)methanone] | > 5 °C |  |  | 100 to 500 nM |
| COc1ncnc(C2CC2)c1-c1ncc2cc(C(=O)N3CC4(COC4)C3)n(Cc3ccc(-c4nc(C(F)(F)F)cn4C(C)C)cc3)c2n1 [Example 35, (2-(4-cyclopropyl-6-methoxypyrimid in-5-yl)-7-(4-(1-isopropyl-4-(trifluoromethyl)-1H-imidazol-2-yl)benzyl)-7H-pyrrolo[2,3-d]pyrimidin-6-yl) (2-oxa-6-azaspiro[3.3]heptan-6-yl)methanone] | > 5 °C |  |  | < 100 nM |
| CNC(=O)c1cc2cnc(-c3c(OC(F)F)ncnc3C3CC3)nc2n1Cc1ccc(-c2nc(C(F)(F)F)cn2C(C)C)cc1 [Example 95, 2-(4-cyclopropyl-6-(difluoromethoxy)pyrimidin-5-yl)-7-(4-(1-isopropyl-4-(trifluoromethyl)-1H-imidazol-2-yl)benzyl)-N-methyl-7H-pyrrolo[2,3-d]pyrimidine-6-carboxamide] | > 5 °C |  |  | 100 to 500 nM |

Further lines, with some results ahead:

| ΔTm at 100 µM [1, 3] | SMILES | ΔTm at 100 µM [1] | GI50 ([2]; UWB1289, 144 h) | GI50 [2, 4] |
| --- | --- | --- | --- | --- |
| > 5 °C | CNC(=O)c1cc2cnc(-c3ccccc3C(C)C)nc2n1Cc1ccc(-c2nc(C(F)(F)F)cn2C)cc1 [Example 180, 2-(2-isopropylphenyl)-N-methyl-7-(4-(1-methyl-4-(trifluoromethyl)-1H-imidazol-2-yl)benzyl)-7H-pyrrolo[2,3-d]pyrimidine-6-carboxamide] |  |  | < 100 nM |
| > 5 °C | COc1ncnc(C2CC2)c1-c1ncc2cc(C(=O)N[C@H]3C[C@@H](OC)C3)n(Cc3ccc(-c4nc(C(F)(F)F)cn4C(C)C)cc3)c2n1 [Example 131, 2-(4-cyclopropyl-6-methoxypyrimidin-5-yl)-7-(4-(1-isopropyl-4-(trifluoromethyl)-1H-imidazol-2-yl)benzyl)-N-((1s,3s)-3-methoxycyclobutyl)-7H-pyrrolo[2,3-d]pyrimidine-6-carboxamide] |  |  | < 100 nM |
| > 5 °C | COc1ncnc(C2CC2)c1-c1ncc2cc(C(=O)N[C@H]3CCN(C)CC3(F)F)n(Cc3ccc(-c4nc(C(F)(F)F)cn4C)cc3)c2n1 [Example 202, (S)-2-(4-cyclopropyl-6-methoxypyrimidin-5-yl)-N-(3,3-difluoro-1-methylpiperidin-4-yl)-7-(4-(1-methyl-4-(trifluoromethyl)-1H-imidazol-2-yl)benzyl)-7H-pyrrolo[2,3-d]pyrimidine-6-carboxamide] |  |  | < 100 nM |
| > 5 °C | COc1ncnc(C2CC2)c1-c1ncc2cc(C(=O)N[C@@H]3CCN(C4COC4)C[C@@H]3F)n(Cc3ccc(-c4nc(C(F)(F)F)cn4C)cc3)c2n1 [Example 216, 2-(4-cyclopropyl-6-methoxypyrimidin-5-yl)-N-((3S,4R)-3-fluoro-1-(oxetan-3-yl)piperidin-4-yl)-7-(4-(1-methyl-4-(trifluoromethyl)-1H-imidazol-2-yl)benzyl) -7H-pyrrolo[2,3-d]pyrimidine-6-carboxamide] |  |  | 100 to 500 nM |
| > 5 °C | COc1ncnc(C2CC2)c1-c1ncc2cc(C(=O)NC3CCN(C(C)C)CC3)n(Cc3ccc(-c4nc(C(F)(F)F)cn4C(C)C)cc3)c2n1 [Example 137, 2-(4-cyclopropyl-6-methoxypyrimidin-5-yl)-7-(4-(1-isopropyl-4-(trifluoromethyl)-1H-imidazol-2-yl)benzyl)-N-(1-isopropylpiperidin-4-yl)-7H-pyrrolo[2,3-d]pyrimidine-6-carboxamide] |  |  | < 100 nM |
| > 5 °C | COc1ncnc(C2CC2)c1-c1ncc2cc(C(=O)N[C@@H]3CCN(C)C[C@H]3F)n(Cc3ccc(-c4nc(C(F)(F)F)cn4C)cc3)c2n1 [Example 165, 2-(4-cyclopropyl-6-methoxypyrimidin-5-yl)-N-((3R,4R)-3-fluoro-1-methylpiperidin-4-yl)-7-(4-(1-methyl-4-(trifluoromethyl)-1H-imidazol-2-yl)benzyl)-7H-pyrrolo[2,3-d]pyrimidine-6-carboxamide] |  |  | < 100 nM |
| > 5 °C | COc1ncnc(C2CC2)c1-c1ncc2cc(C(=O)N3CC(O)C3)n(Cc3ccc(-c4nc(C(F)(F)F)cn4C)cc3)c2n1 [Example 196, (2-(4-cyclopropyl-6-methoxypyrimid in-5-yl)-7-(4-(1-methyl-4-(trifluoromethyl)-1H-imidazol-2-yl)benzyl)-7H-pyrrolo[2,3-d]pyrimidin-6-yl) (3-hydroxyazetidi n-1-yl)methanone] |  |  | < 100 nM |
